Data from patent US20230338347A1, “New Use of Inhibitors of the Notch Signalling Pathway” (Cellestia Biotech AG, priority 2020, published 2023).

Columns and labels:
Format in all cases: in vivo, human
[1] = test system: Notch-activated relapsed and treatment refractory T-ALL; assay: Compassionate use in a NOTCH positive relapsed refractory T-ALL patient: clinical response; details: free base once daily 300 to 400 to 500 mg
Method: In a compassionate use program, a patient with Notch-activated relapsed and treatment refractory T-ALL was treated with 6-(4-Tert-Butylphenoxy)Pyridin-3-Amine (free base) once daily starting with 300 mg, increased to 400 mg, then 500 mg in addition to their ongoing anti-cancer treatment. Dose escalation was done every 3 days to reach the target dose 500 mg.

NOTCH target genes = assay: NOTCH target gene expression in hair follicles of Phase 1 patients (Nanostring); details: several NOTCH target genes, starting at Cycle 2 day 1
Description: Hair follicles were obtained at pre-defined time points to measure changes in NOTCH target genes expression by 6-(4-Tert-Butylphenoxy)Pyridin-3-Amine treatment. NOTCH target gene down-regulation in hair follicles has been reported to be a robust and indicative biomarker that correlates with both clinical efficacy and the incidence of DLTs (Tanis K Q, et al. Clin Pharmacol Ther 2016; 99(4):370-80; Cook N, et al. BJC 2018; 118(6):793-801).
Between 5 to 10 hairs were plucked to extract the complete and undamaged hairbulb (full hair follicle), and processed as described in Camidge D R, et al. Br J Cancer 2005; 92:1837-41 and Bradley B J, et al. Mol EcolNotes 2005; 5:961-4. RNA concentration was measured by Qubit (RNAHighSensitivity), and RNA integrity was evaluated on a RNA 6000 Pico chip. RNA samples were tested for gene expression profiling on a Nanostring platform.
Table 1: NOTCH target down regulation in hair follicles and blood cells from Phase 1 patients. Target gene down regulation (CCND3, cyclin-D3; HES1, Hairy and enhance of split-1; HES4, Hairy and enhance of split-4; HESS, Hairy and enhance of split-5; HEY1, hes related family bHLH transcription factor with YRPW motif1; HEY2; hes related family bHLH transcription factor with YRPW motif 2; HEYL, hes-related family bHLH transcription factor with YRPW motif-like; IL7R-α, Interleukin-7 receptor subunit alpha; NOTCH1; NOTCH2; NRARP (NOTCH Regulated Ankyrin Repeat Protein): […]

[2] = Phase I/IIA study: pharmacokinetics after oral administration
Description: This […] study is an ongoing first-in-human, open-label study investigating the safety, tolerability, pharmacokinetics (PK), pharmacodynamics (PD) and preliminary efficacy of the pan-NOTCH inhibitor 6-(4-Tert-Butylphenoxy)Pyridin-3-Amine in adult patients with locally advanced or metastatic solid tumours or hematologic malignancies.
The study is designed as an open label, non-randomised, uncontrolled […] dose escalation study with expansion cohorts of 6-(4-Tert-Butylphenoxy)Pyridin-3-Amine administered orally on a once-daily schedule, based on a 28-day treatment cycle. The dosing will be 15, 30, 60, 120, 170, 250, 400, or 600 mg of the 6-(4-Tert-Butylphenoxy)Pyridin-3-Amine monohydrochloride salt or higher per day or alternatively 20, 40, 60, 120, 170, 250, 400, or 600 mg of the 6-(4-Tert-Butylphenoxy)Pyridin-3-Amine monohydrochloride salt or higher per day. Dosing of 15, 30, 60, 120, 170, 250, 400, or 600 mg of the 6-(4-Tert-Butylphenoxy)Pyridin-3-Amine monohydrochloride salt corresponds to dosing of 13, 26, 52, 104, 148, 217, 348, or 522 mg of 6-(4-Tert-Butylphenoxy)Pyridin-3-Amine (free base). Dosing of 20, 40, 60, 120, 170, 250, 400, or 600 mg of the 6-(4-Tert-Butylphenoxy)Pyridin-3-Amine monohydrochloride salt corresponds to dosing of 17, 35, 52, 104, 148, 217, 348, or 522 mg of 6-(4-Tert-Butylphenoxy)Pyridin-3-Amine (free base). For this study, 6-(4-Tert-Butylphenoxy)Pyridin-3-Amine monohydrochloride salt was formulated into a capsule having a drug load of 5, 10, 20, 50 and 100 mg, respectively intended to be administered orally. • Patients will meet the following criteria:
6-(4-Tert-Butylphenoxy)Pyridin-3-Amine is rapidly absorbed after oral administration and reaches Cmax within 1 to 2 hours of dosing. […] The elimination half-life is approximately 20 hours and 6-(4-Tert-Butylphenoxy)Pyridin-3-Amine accumulates about 2-fold with repeated daily administration.

[3] = test system: DTX-1 (Deltex E3 Ubiquitin Ligase 1); assay: Compassionate use T-ALL patient: DTX-1 gene expression by RTqPCR; details: at C2D15; time-dependent; target dose 500 mg once daily
Method: DTX-1 is a positive regulator of NOTCH signalling pathway (C1D01_pre: Cycle 1 Day 1 predose; C1D01_1 h: Cycle 1 Day 1 1 hour post dose; C1D21_1 h: Cycle 1 Day 21 1 hour post dose; C2D15_1 h: Cycle 2 Day 15 1 hour post dose).
Administration of 6-(4-Tert-Butylphenoxy)Pyridin-3-Amine induced a potent time-dependent downregulation of DTX-1 (Deltex E3 Ubiquitin Ligase 1) up to 95% at C2D15, indicative of NOTCH pathway downregulation. DTX-1 is a positive regulator of NOTCH signalling pathway
Blood samples for PBMCs and cytokine analysis were collected using BD Vacutainer® Evacuated Blood Collection Tubes, and immediately centrifuged to separate the cell and plasma compartments for further analysis. Gene expression profiling was performed by standard RTqPCR. Cytokine analysis in the plasma compartment was performed with a standard commercially available ELISA method.

[4] = test system: adenoid cystic carcinoma (ACC); assay: Phase I/IIA study: preliminary clinical efficacy (best response, disease control rate); details: for Disease control rate (CR, PR or SD / patients treated): 19 ACC patients
Description: Each lane represents one patient and the length of the lane represents the duration of treatment. […] Disease control rate of 19 patients with adenoid cystic carcinoma at 8 weeks and 20 weeks was 79% and 58%, respectively (calculated as number of patients with complete or partial response, or stable disease divided by the number of patients with that indication treated). Abbreviations: SD, stable disease; PD, progressive disease; NA, not applicable).
The primary outcome measures for this study are: • Part A (Escalation): Dose limiting toxicities (DLT) • Part B (Expansion): Best overall response according to the respective tumour assessment criteria for the different cancer indications.
The Notch status of the other patients is under investigation. Disease control rate (DCR) of 19 ACC patients at 8 weeks and 20 weeks was 79% and 58%, respectively (DCR defined as number of patients with CR, PR, or SD divided by the number of patients treated).

CC(C)(C)c1ccc(Oc2ccc(N)cn2)cc1 [6-(4-Tert-Butylphenoxy)Pyridin-3-Amine]
time to complete remission after starting dosing [1]: ≤ 1 week
clinical response ([1]; added to ongoing anti-cancer treatment): complete remission
average NOTCH target gene downregulation compared to baseline (inhibition) (NOTCH target genes): higher than 90%
time to steady state concentrations ([2]; daily dosing): within one week
Tmax ([2]; human, plasma, after oral administration, read-out: time to reach Cmax): 1 to 2 h
half-life ([2]; human, plasma, oral, read-out: elimination half-life (converted)): ~20 h
accumulation with repeated daily administration ([2]; oral, daily): about 2 fold
plasma exposure versus dose ([2]; oral, dose range tested): increases with increasing doses
saturation of absorption ([2]; oral, dose range tested): no signs of saturated absorption
downregulation of DTX-1 [3]: up to 95%
number of ACC patients with radiologically confirmed stable disease ([4]; 4 of them with Notch activating mutation): Ten
Disease control rate (CR, PR or SD / patients treated) ([4]; at 8 weeks): 79%
Disease control rate (CR, PR or SD / patients treated) ([4]; at 20 weeks): 58%
best response ([4]; at doses showing target engagement): durable stable disease
